Experimental data published in ChEMBL document CHEMBL1629455, “Discovery of a novel class of biphenyl pyrazole sodium channel blockers for treatment of neuropathic pain” (Bioorg Med Chem Lett, 2010).

Columns and labels:
[1] = system: Mus musculus; assay: Neurotoxicity in conscious mouse assessed as effect on behavior at 100 mg/kg after 5 hrs; format: toxicity, organism-based; parameters: dose 100 mg/kg; conditions: in vivo
[2] = system: Mus musculus; assay: Neurotoxicity in conscious mouse assessed as effect on behavior at 100 mg/kg after 2 hrs; format: toxicity, organism-based; parameters: dose 100 mg/kg; conditions: in vivo
[3] = system: Mus musculus; assay: Neurotoxicity in conscious mouse assessed as effect on CNS function at 100 mg/kg after 24 hrs; format: toxicity, organism-based, Central nervous system; parameters: dose 100 mg/kg; conditions: in vivo
[4] = system: Mus musculus; assay: Neurotoxicity in conscious mouse assessed as effect on CNS function at 100 mg/kg after 5 hrs; format: toxicity, organism-based, Central nervous system; parameters: dose 100 mg/kg; conditions: in vivo
[5] = system: Plasma; assay: Plasma concentration in dog at 3 mg/kg, iv; format: ADME, organism-based, Canis lupus familiaris; parameters: dose 3 mg/kg, route intravenous; conditions: in vivo
[6] = system: Plasma; assay: Plasma concentration in dog at 1 mg/kg, iv; format: ADME, organism-based, Canis lupus familiaris; parameters: dose 1 mg/kg, route intravenous; conditions: in vivo
[7] = system: Canis familiaris; assay: Cardiotoxicity in anesthetized dog assessed as increase in PR interval at 10 mg/kg, iv; format: toxicity, organism-based, Canis lupus familiaris; parameters: dose 10 mg/kg, route intravenous; conditions: in vivo
[8] = system: Canis familiaris; assay: Cardiotoxicity in anesthetized dog assessed as effect on QTc interval at 10 mg/kg, iv; format: toxicity, organism-based, Canis lupus familiaris; parameters: dose 10 mg/kg, route intravenous; conditions: in vivo
[9] = system: Canis familiaris; assay: Cardiotoxicity in anesthetized dog assessed as effect on QTc interval at 3 mg/kg, iv; format: toxicity, organism-based, Canis lupus familiaris; parameters: dose 3 mg/kg, route intravenous; conditions: in vivo
[10] = system: Canis familiaris; assay: Cardiotoxicity in anesthetized dog assessed as effect on QTc interval at 1 mg/kg, iv; format: toxicity, organism-based, Canis lupus familiaris; parameters: dose 1 mg/kg, route intravenous; conditions: in vivo
[11] = system: Canis familiaris; assay: Cardiotoxicity in anesthetized dog assessed as effect on QRS interval at 3 mg/kg, iv; format: toxicity, organism-based, Canis lupus familiaris; parameters: dose 3 mg/kg, route intravenous; conditions: in vivo
[12] = system: Canis familiaris; assay: Cardiotoxicity in anesthetized dog assessed as effect on QRS interval at 1 mg/kg, iv; format: toxicity, organism-based, Canis lupus familiaris; parameters: dose 1 mg/kg, route intravenous; conditions: in vivo
[13] = system: Canis familiaris; assay: Cardiotoxicity in anesthetized dog assessed as effect on heart rate at 10 mg/kg, iv; format: toxicity, organism-based, Canis lupus familiaris; parameters: dose 10 mg/kg, route intravenous; conditions: in vivo
[14] = system: Canis familiaris; assay: Cardiotoxicity in anesthetized dog assessed as effect on heart rate at 3 mg/kg, iv; format: toxicity, organism-based, Canis lupus familiaris; parameters: dose 3 mg/kg, route intravenous; conditions: in vivo
[15] = system: Canis familiaris; assay: Cardiotoxicity in anesthetized dog assessed as effect on heart rate at 1 mg/kg, iv; format: toxicity, organism-based, Canis lupus familiaris; parameters: dose 1 mg/kg, route intravenous; conditions: in vivo
[16] = system: Canis familiaris; assay: Cardiotoxicity in anesthetized dog assessed as effect on mean arterial pressure at 10 mg/kg, iv; format: toxicity, organism-based, Canis lupus familiaris, Artery; parameters: dose 10 mg/kg, route intravenous; conditions: in vivo
[17] = system: Canis familiaris; assay: Cardiotoxicity in anesthetized dog assessed as effect on mean arterial pressure at 3 mg/kg, iv; format: toxicity, organism-based, Canis lupus familiaris, Artery; parameters: dose 3 mg/kg, route intravenous; conditions: in vivo
[18] = system: Canis familiaris; assay: Cardiotoxicity in anesthetized dog assessed as effect on mean arterial pressure at 1 mg/kg, iv; format: toxicity, organism-based, Canis lupus familiaris, Artery; parameters: dose 1 mg/kg, route intravenous; conditions: in vivo
[19] = Plasma concentration in rat 30 to 100 mg/kg, po after 3.5 hrs; format: ADME, organism-based; parameters: dose 30-100 mg/kg, route oral
[20] = system: Rattus norvegicus; assay: Neurotoxicity in rat assessed as delay in motor coordination at 100 mg/kg, po by rotarod test (reference value: 18%); format: toxicity, organism-based; parameters: dose 100 mg/kg, route oral; conditions: in vivo
[21] = system: Rattus norvegicus; assay: Antiallodynic activity in rat […] model assessed as reversal of complete Freund's adjuvant-induced allodynia at 30 mg/kg, po after 4 hrs; format: functional
[22] = system: Rattus norvegicus; assay: Antiallodynic activity in rat […] model assessed as reversal of complete Freund's adjuvant-induced allodynia at 30 mg/kg, po after 2 hrs; format: functional
[23] = system: Rattus norvegicus; assay: Antiallodynic activity in rat spinal nerve ligation model of neuropathic pain assessed as reversal of allodynia at 30 mg/kg, po after 2 hrs; format: functional
[24] = system: Rattus norvegicus; assay: Antiallodynic activity in rat spinal nerve ligation model of neuropathic pain assessed as reversal of allodynia at 3 mg/kg, po after 2 hrs; format: functional
[25] = AUC in dog at 60 mg/kg, po; format: ADME, organism-based, Canis lupus familiaris; parameters: dose 60 mg/kg, route oral; conditions: plasma
[26] = Cmax in dog at 60 mg/kg, po; format: ADME, organism-based, Canis lupus familiaris; parameters: dose 60 mg/kg, route oral; conditions: in vivo
[27] = Cmax in dog at 20 mg/kg, po; format: ADME, organism-based, Canis lupus familiaris; parameters: dose 20 mg/kg, route oral; conditions: in vivo
[28] = AUC in dog at 2 mg/kg, po; format: ADME, organism-based, Canis lupus familiaris; parameters: dose 2 mg/kg, route oral; conditions: plasma
[29] = Cmax in dog at 0.5 mg/kg, iv and 2 mg/kg, po; format: ADME, organism-based, Canis lupus familiaris; conditions: in vivo
[30] = system: Rattus norvegicus; assay: Clearance in rat plasma at 1 mg/kg, iv and 3 mg/kg, po; format: ADME, organism-based; conditions: in vivo
[31] = Half life in rat at 1 mg/kg, iv and 3 mg/kg, po; format: ADME, organism-based; conditions: in vivo
[32] = Metabolic stability in dog liver microsomes assessed as compound remaining after 60 mins in presence of 10 uM substrate; format: ADME, Canis lupus familiaris, Microsome; conditions: read-out: Stability
[33] = Metabolic stability in human liver microsomes assessed as compound remaining after 60 mins in presence of 10 uM substrate; format: ADME, Microsome; conditions: read-out: Stability
[34] = target: T1, Nuclear receptor subfamily 1 group I member 2 (Homo sapiens, UniProt O75469); assay: Induction of PXR
T1 sequence (O75469 whole entry): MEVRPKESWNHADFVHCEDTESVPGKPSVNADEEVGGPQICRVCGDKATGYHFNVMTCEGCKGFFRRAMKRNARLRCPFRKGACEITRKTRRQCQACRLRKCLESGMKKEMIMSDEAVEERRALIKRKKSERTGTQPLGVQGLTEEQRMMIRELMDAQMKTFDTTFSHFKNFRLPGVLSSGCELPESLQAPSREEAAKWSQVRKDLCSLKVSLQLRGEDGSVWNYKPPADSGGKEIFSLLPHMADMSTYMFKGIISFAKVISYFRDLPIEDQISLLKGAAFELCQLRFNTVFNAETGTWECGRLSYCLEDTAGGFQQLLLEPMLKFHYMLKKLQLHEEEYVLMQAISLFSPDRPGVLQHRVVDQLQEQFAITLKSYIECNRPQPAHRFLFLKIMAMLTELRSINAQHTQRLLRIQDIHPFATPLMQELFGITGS

[35] = target: Cytochrome P450 2C9 (Homo sapiens, UniProt P11712); assay: Inhibition of CYP2C9; format: ADME
[36] = target: Cytochrome P450 3A4 (Homo sapiens, UniProt P08684); assay: Inhibition of CYP3A4; format: ADME
[37] = target: Sodium channel protein type 5 subunit alpha (Homo sapiens, UniProt Q14524); assay: Inhibition of Nav1.5 by VIPR assay
[38] = target: Cav1.2 (L-type calcium channel subunit alpha-1C) (Homo sapiens, UniProt Q13936); assay: Inhibition of DLZ binding to Cav1.2 at 10 uM; conditions: probe DLZ
[39] = target: T2, hERG (KCNH2) (Homo sapiens, UniProt Q12809); assay: Inhibition of human ERG at 30 uM by electrophysiology assay
[40] = target: Sodium channel protein type 10 subunit alpha (Homo sapiens, UniProt Q9Y5Y9); assay: Inhibition of human Nav1.8 by VIPR assay
[41] = system: Rattus norvegicus; assay: Antiallodynic activity in rat spinal nerve ligation model of neuropathic pain assessed as reversal of allodynia at 10 mg/kg, po after 2 hrs; format: functional; conditions: Rattus norvegicus, Spinal nerve, 2 h
[42] = target: T2, hERG (KCNH2); assay: Inhibition of MK-0499 binding to human ERG at 10 uM; conditions: probe MK-0499
[43] = system: Mus musculus; assay: Neurotoxicity in conscious mouse assessed as effect on motor activity at 100 mg/kg after 5 hrs; format: toxicity, organism-based; parameters: dose 100 mg/kg; conditions: in vivo
[44] = system: Mus musculus; assay: Neurotoxicity in conscious mouse assessed as effect on motor activity at 100 mg/kg after 24 hrs; format: toxicity, organism-based; parameters: dose 100 mg/kg; conditions: in vivo
[45] = system: Mus musculus; assay: Neurotoxicity in conscious mouse assessed as effect on body temperature at 100 mg/kg after 2 hrs; format: toxicity, organism-based; parameters: dose 100 mg/kg; conditions: in vivo
[46] = system: Mus musculus; assay: Neurotoxicity in conscious mouse assessed as effect on body temperature at 100 mg/kg after 5 hrs; format: toxicity, organism-based; parameters: dose 100 mg/kg; conditions: in vivo
[47] = system: Mus musculus; assay: Neurotoxicity in conscious mouse assessed as effect on body temperature at 100 mg/kg after 24 hrs; format: toxicity, organism-based; parameters: dose 100 mg/kg; conditions: in vivo
[48] = target: Sodium channel protein type 9 subunit alpha (Homo sapiens, UniProt Q15858); assay: Inhibition of human Nav1.7 by VIPR assay
Sodium channel protein type 9 subunit alpha, sequence (Q15858 whole entry): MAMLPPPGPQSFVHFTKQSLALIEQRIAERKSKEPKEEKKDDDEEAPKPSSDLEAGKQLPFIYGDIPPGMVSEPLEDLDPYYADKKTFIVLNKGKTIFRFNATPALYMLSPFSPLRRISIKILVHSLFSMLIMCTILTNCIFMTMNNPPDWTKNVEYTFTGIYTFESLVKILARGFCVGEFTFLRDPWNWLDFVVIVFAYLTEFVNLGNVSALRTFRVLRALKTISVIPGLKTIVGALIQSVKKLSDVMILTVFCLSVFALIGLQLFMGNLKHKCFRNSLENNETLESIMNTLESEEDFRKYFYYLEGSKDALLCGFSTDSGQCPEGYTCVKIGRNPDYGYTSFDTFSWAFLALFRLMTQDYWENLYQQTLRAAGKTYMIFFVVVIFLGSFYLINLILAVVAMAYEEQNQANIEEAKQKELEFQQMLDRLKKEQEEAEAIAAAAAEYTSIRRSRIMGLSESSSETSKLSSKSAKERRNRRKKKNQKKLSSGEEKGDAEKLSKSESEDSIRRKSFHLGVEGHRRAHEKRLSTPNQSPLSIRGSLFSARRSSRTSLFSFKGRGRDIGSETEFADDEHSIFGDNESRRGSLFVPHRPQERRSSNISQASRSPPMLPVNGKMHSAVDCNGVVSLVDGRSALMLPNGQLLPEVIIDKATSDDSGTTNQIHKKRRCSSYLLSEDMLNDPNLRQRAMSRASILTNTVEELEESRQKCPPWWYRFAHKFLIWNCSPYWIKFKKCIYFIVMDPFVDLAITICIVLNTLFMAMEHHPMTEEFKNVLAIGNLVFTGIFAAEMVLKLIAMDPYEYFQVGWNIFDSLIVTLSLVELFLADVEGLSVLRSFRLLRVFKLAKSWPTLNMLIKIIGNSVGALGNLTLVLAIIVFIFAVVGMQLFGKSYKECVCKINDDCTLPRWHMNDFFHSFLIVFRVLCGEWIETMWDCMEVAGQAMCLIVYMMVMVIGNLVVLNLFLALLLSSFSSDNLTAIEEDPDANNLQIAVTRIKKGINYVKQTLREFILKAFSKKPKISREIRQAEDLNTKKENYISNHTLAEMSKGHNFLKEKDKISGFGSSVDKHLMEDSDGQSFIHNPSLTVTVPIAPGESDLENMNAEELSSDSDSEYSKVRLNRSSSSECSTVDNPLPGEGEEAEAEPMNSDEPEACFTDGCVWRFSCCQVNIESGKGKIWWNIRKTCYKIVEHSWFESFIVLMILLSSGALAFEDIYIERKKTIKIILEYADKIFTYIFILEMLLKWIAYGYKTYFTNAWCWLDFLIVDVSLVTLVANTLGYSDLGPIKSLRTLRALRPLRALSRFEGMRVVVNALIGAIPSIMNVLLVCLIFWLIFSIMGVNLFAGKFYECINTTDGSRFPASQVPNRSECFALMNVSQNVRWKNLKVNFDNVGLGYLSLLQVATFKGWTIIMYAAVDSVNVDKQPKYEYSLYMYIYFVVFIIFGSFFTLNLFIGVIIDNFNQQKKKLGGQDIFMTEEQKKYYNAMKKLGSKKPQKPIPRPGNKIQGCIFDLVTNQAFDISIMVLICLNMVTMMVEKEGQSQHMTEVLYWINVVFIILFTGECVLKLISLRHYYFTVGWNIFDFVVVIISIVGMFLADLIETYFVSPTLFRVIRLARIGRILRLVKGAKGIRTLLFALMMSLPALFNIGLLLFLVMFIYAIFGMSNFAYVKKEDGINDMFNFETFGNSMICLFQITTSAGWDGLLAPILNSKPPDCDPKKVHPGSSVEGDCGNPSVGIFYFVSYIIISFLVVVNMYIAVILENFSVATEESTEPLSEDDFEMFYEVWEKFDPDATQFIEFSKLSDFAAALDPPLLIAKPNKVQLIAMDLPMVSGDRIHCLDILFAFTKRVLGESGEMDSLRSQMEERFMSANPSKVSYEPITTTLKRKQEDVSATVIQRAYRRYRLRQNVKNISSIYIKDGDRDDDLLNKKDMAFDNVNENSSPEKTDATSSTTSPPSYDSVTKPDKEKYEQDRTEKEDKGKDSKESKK

T2 sequence (Q12809 whole entry): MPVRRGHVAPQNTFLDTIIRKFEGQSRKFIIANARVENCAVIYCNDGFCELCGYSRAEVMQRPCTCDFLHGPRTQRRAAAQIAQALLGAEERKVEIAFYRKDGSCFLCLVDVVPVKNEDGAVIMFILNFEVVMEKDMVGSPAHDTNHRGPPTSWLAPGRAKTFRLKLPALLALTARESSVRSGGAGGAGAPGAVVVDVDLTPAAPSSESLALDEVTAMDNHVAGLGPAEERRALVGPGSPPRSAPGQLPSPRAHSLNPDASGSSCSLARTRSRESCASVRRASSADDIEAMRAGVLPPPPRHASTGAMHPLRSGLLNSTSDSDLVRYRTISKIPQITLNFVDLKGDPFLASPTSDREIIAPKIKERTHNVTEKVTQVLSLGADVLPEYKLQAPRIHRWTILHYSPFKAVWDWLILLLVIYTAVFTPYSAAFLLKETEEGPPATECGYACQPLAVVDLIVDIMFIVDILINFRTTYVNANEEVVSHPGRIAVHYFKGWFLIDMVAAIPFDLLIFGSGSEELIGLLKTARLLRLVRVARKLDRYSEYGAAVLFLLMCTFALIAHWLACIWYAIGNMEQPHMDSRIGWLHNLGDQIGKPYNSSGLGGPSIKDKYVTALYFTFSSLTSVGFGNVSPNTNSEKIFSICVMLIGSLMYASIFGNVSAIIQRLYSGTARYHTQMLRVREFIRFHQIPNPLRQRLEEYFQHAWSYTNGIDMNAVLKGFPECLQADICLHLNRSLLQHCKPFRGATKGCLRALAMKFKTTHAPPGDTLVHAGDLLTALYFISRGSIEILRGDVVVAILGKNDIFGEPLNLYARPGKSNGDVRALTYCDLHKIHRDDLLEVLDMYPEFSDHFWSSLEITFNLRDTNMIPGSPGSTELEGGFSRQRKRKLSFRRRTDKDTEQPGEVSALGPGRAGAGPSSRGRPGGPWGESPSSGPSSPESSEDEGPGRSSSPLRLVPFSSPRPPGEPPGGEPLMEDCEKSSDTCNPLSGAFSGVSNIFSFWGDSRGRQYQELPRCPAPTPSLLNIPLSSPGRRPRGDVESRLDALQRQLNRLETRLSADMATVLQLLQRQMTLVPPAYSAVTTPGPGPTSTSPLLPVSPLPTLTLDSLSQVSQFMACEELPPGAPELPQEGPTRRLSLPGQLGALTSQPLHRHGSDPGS
Cytochrome P450 3A4, sequence (P08684 whole entry): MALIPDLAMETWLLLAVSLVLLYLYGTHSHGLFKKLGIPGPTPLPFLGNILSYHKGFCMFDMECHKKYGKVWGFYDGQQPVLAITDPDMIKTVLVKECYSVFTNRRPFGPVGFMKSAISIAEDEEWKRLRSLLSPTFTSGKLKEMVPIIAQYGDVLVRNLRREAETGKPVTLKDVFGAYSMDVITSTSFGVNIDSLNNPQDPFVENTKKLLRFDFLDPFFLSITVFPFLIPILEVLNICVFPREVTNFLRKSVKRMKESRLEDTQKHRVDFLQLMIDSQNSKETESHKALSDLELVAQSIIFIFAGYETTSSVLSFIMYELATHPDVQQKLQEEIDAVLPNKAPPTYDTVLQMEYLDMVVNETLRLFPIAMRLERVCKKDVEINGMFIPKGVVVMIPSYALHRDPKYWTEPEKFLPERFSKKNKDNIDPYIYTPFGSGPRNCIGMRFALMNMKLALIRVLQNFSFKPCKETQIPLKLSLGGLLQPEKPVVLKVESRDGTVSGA
Cytochrome P450 2C9, sequence (P11712 whole entry): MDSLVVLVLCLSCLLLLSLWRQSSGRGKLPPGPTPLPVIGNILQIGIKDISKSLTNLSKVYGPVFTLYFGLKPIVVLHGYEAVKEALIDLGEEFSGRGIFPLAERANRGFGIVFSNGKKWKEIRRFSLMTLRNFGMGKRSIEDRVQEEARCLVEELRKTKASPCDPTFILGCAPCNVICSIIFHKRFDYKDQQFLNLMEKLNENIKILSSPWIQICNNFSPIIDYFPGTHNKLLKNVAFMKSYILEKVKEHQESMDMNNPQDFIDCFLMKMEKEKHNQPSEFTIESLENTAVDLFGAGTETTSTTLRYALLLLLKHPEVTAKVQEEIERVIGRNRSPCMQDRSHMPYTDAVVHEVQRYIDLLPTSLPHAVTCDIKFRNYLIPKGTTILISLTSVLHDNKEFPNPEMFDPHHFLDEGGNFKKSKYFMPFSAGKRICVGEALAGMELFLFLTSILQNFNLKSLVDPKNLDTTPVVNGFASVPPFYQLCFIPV

Q: Which Activity [1] does the source give for `NC(=O)c1cc(C(N)=O)n(-c2cccc(-c3cc(C(F)(F)F)ccc3C(F)(F)F)c2)n1` here?
A: Non-toxic

Q: What about the Activity [2] of the same compound?
A: Non-toxic

Q: And the Activity [3]?
A: Non-toxic

Q: What about the Activity [4] of the same compound?
A: Non-toxic

Q: What about the concentration [5] of the same compound?
A: 16.2 µM

Q: And the concentration [6]?
A: 7.3 µM

Q: And the Activity [7]?
A: 6%

Q: And the Activity [8]?
A: Non-toxic

Q: What about the Activity [9] of the same compound?
A: Non-toxic

Q: What about the Activity [10] of the same compound?
A: Non-toxic

Q: And the Activity [11]?
A: Non-toxic

Q: And the Activity [12]?
A: Non-toxic

Q: And the Activity [13]?
A: Non-toxic

Q: And the Activity [14]?
A: Non-toxic

Q: What about the Activity [15] of the same compound?
A: Non-toxic

Q: What about the Activity [16] of the same compound?
A: Non-toxic

Q: And the Activity [17]?
A: Non-toxic

Q: What about the Activity [18] of the same compound?
A: Non-toxic

Q: And the concentration at 3.5 h [19]?
A: 31.6 µM

Q: And the Activity [20]?
A: -11%

Q: What about the inhibition in vivo at 30 mg/kg [21] of the same compound?
A: 53%

Q: What about the inhibition in vivo at 30 mg/kg [22] of the same compound?
A: 46%

Q: And the inhibition in vivo at 30 mg/kg [23]?
A: 56%

Q: What about the inhibition in vivo at 3 mg/kg [24] of the same compound?
A: 18%

Q: And the AUC [25]?
A: 650 µM·h

Q: What about the Cmax [26] of the same compound?
A: 24.4 µM

Q: What about the Cmax [27] of the same compound?
A: 20.3 µM

Q: And the AUC [28]?
A: 50 µM·h

Q: What about the Cmax [29] of the same compound?
A: 2.92 µM

Q: And the clearance [30]?
A: 5 mL/min/kg

Q: What about the half-life [31] of the same compound?
A: 3.1 h

Q: And the remaining at 1 h, 10 uM [32]?
A: > 99%

Q: And the remaining at 1 h, 10 uM [33]?
A: > 99%

Q: And the IC50 [34]?
A: > 25000 nM

Q: What about the IC50 [35] of the same compound?
A: 20300 nM

Q: And the IC50 [36]?
A: > 100000 nM

Q: And the IC50 [37]?
A: 1320 nM

Q: And the inhibition at 10 µM [38]?
A: 0%

Q: What about the inhibition at 30 µM [39] of the same compound?
A: 15%

Q: What about the IC50 [40] of the same compound?
A: 2000 nM

Q: What about the inhibition in vivo at 10 mg/kg [41] of the same compound?
A: 44%

Q: What about the inhibition at 10 µM [42] of the same compound?
A: 17%

Q: And the Activity [43]?
A: Non-toxic

Q: And the Activity [44]?
A: Non-toxic

Q: What about the Activity [45] of the same compound?
A: Non-toxic

Q: What about the Activity [46] of the same compound?
A: Non-toxic

Q: What about the Activity [47] of the same compound?
A: Non-toxic

Q: What about the IC50 [48] of the same compound?
A: 810 nM
